# The source made the active and inactive calls.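 The calls were made as follows: active = fitted curve reaches a 40% rise in fluorescent cells at or below the top valid dose; inactive = opposite-direction effect, or the rest.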
# Experiment: autofluorescent compounds in non-GFP fibroblasts, dose response, artefact control for X-chromosome reactivation project, imaging, mTEFS fibroblasts, cherry-pick (AID 743396);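 also: raw share of Hoechst-counted cells scored GFP positive without control normalization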
# Details: mTEFS fibroblasts autofluorescence, GFP-channel imaging, 3 days; at 19.5 µM (top of the series)
row,SMILES,% fluorescent cells increase
1,COC(=O)Cn1cc(/C=C2\C(=O)NC(=O)N(c3ccc(OC)cc3)C2=O)c2ccccc21,0.304% (inactive)

# Same assay, conditions: mTEFS fibroblasts autofluorescence, GFP-channel imaging, 3 days; at 19.5 µM (top of the series); cells pretreated with 5-aza-dC
row,SMILES,% fluorescent cells increase
1,CC(=O)NC(c1ccc(Cl)cc1)c1c(O)ccc2ccc(O)cc12 (stereo unspecified),0.001% (inactive)
2,O=C(CCN1CCCCC1)NCC[C@@H]1CC[C@H](NC(=O)C2CCCCC2)[C@H](CO)O1,0.045% (inactive)
3,COc1ccc2c3c(n(C)c2c1)[C@H](CO)N(C(=O)CN1CCOCC1)CC31CCN(C(=O)Nc2cccc(F)c2)CC1,0% (inactive)
4,Cc1nnc(-c2ccc(N3CCCCCC3)c([N+](=O)[O-])c2)o1,0% (inactive)
5,NC(=S)Nc1ccc(Cl)cc1Cl,0.009% (inactive)
6,CCOC(=O)c1ccccc1NC(=O)COC(=O)C1CCN(S(=O)(=O)c2ccccc2C(=O)OC)CC1,0% (inactive)
7,CC(C)c1ccc(CN2CCN(C(=O)CSc3nnnn3C3CC3)CC2)cc1,0.042% (inactive)
8,CNc1ccc([N+](=O)[O-])cc1C(=O)O,-0.007% (inactive)
9,CN(CC(=O)Nc1ccc(Cl)c(Cl)c1)CC(=O)Nc1ccc2c(c1)OCO2,0% (inactive)
10,CCNC(=O)C[C@@H]1CC[C@H]2[C@@H](COC[C@@H](O)CN2C(=O)C2CCCC2)O1,0.746% (inactive)
11,CO[C@@H]1CN(C)C(=O)c2cc(NS(C)(=O)=O)ccc2OC[C@H](C)N(C(=O)C2CCCC2)C[C@H]1C,0.308% (inactive)
12,O=C(Nc1c(Cl)cccc1Cl)Oc1cccc2cccnc12,6.89% (inactive)
13,CC(C)CC#Cc1ccc([C@@H]2[C@@H](CO)N3C(=O)CN(C(=O)c4cccc(F)c4)C[C@H]23)cc1,-0.108% (inactive)
14,CCOC(=O)Cn1c(=NC(=O)c2ccc([N+](=O)[O-])s2)sc2ccccc21,12% (inactive)
15,CC(NC(=O)c1ccccc1)C(=O)N/N=C/c1ccccc1 (stereo unspecified),0% (inactive)
16,Cc1ccc(S(=O)(=O)N2CCN(C(=O)COC(=O)c3ccccc3OC(F)F)CC2)c(C)c1,0% (inactive)
17,CCOc1ccc(N2C(=O)CC(Sc3nc(O)c(CC)c(=O)[nH]3)C2=O)cc1 (stereo unspecified),-0.007% (inactive)
18,O=C(COC(=O)COc1cccc(C(F)(F)F)c1)NC1CCS(=O)(=O)C1 (stereo unspecified),0.015% (inactive)
19,CC(C)n1c(NCc2cc(Cl)ccc2O)nc2ccccc21,-0.007% (inactive)
20,CCOc1ccc(NC(=S)NC(C)c2cccs2)cc1 (stereo unspecified),0% (inactive)
21,COc1ccc(N2CCN(C(CNC(=O)c3ccc4c(c3)OCO4)c3ccco3)CC2)cc1 (stereo unspecified),0% (inactive)
22,Cc1nc(NC(=O)C(Cl)Cl)sc1C(=O)N(C)C,0% (inactive)

row,SMILES,% fluorescent cells increase
1,CCc1ccc(NS(=O)(=O)c2cccc3nonc23)cc1,5.79% (inactive)
2,Cc1[nH]c2ccccc2c1/C=N/Nc1nc2ccccc2[nH]1,0% (inactive)
3,COc1ccc(-c2nnc(NC(=O)c3ccc(F)cc3)o2)cc1,0% (inactive)
4,Brc1ccc(-c2cn3ccccc3n2)cc1,0% (inactive)
5,CC(=NNc1ccc2ccccc2n1)c1ccccn1,15.8% (inactive)
6,Cc1occc1C(=O)N/N=C/C(Br)=C\c1ccccc1,-0.004% (inactive)
7,Cc1c(CN2CCCC(C(=O)c3cccc(OC(C)C)c3)C2)c(=O)n(-c2ccccc2)n1C (stereo unspecified),0.037% (inactive)
8,COc1ccccc1N(C)c1cc2c(c3c1ccn3C)C1CCC2C1 (stereo unspecified),0.033% (inactive)
9,CCOC(=O)c1c(C)[nH]c(N=Nc2ccc(OC)cc2)c1C,0.028% (inactive)
10,COc1cc(/C=N/Nc2nc(N3CCCC3)nc(N3CCCC3)n2)ccc1OCc1ccccc1F,0.025% (inactive)
11,Cc1cc(-c2nc(C)c(-c3nnc(SCC(=O)Nc4ccc(Cl)cc4)n3C)s2)no1,0% (inactive)
12,COc1cc(/C=C(\C#N)c2nc3ccccc3o2)ccc1O,2.54% (inactive)
13,S=C(NCc1ccco1)Nc1cccc(Cl)c1Cl,0.083% (inactive)
14,Oc1ccc(Br)cc1C=Nc1ccc2c3c(cccc13)CC2,3.42% (inactive)
15,Cc1cccc2sc(N(CCCN(C)C)C(=O)CN3C(=O)c4ccccc4C3=O)nc12,0% (inactive)
16,COC(=O)c1cc(NS(=O)(=O)c2ccc(NC(C)=O)cc2)ccc1Cl,0% (inactive)
17,O=C(OCc1cc(=O)n2c(n1)sc1ccccc12)c1ccc(O)cc1O,-0.007% (inactive)
18,Cc1ccc(-c2[nH]c(=S)[nH]c(=O)c2C#N)cc1,0.007% (inactive)
19,Cn1cc(C(=O)N/N=C/C(Br)=C/c2ccccc2)ccc1=O,0% (inactive)
20,CC(=O)c1cccc(-c2ccc3c(c2)C(C)(Cc2ccc(S(C)(=O)=O)cc2)C(=O)N3)c1 (stereo unspecified),0% (inactive)
21,COc1ccc(-c2ccc3[nH]c4c(c3c2)CCN2C(=O)[C@@H]([C@H](C)O)[C@@H](N(C)C(=O)Nc3ccc(F)cc3)C[C@@H]42)cc1,10.8% (inactive)
22,CCOC(=O)/C(C#N)=C/C=C1/C=CC=CN1C,0.015% (inactive)

row,SMILES,% fluorescent cells increase
1,CC1=Nc2ccccc2/C1=C\c1sc(Nc2ccc(C)cc2)nc1O,0.199% (inactive)
2,Cc1ccc(-c2ccc3c(c2)O[C@@H](CN(C)Cc2ccncc2)[C@@H](C)CN([C@@H](C)CO)S3(=O)=O)cc1,0.037% (inactive)
3,O=C(c1cnccn1)N1CC(=O)N2[C@H](CO)[C@@H](c3ccc(-c4cccc(F)c4)cc3)[C@@H]2C1,-0.166% (inactive)
4,COc1ccc(-c2ccc(C3[C@@H]4CN(S(=O)(=O)c5ccccc5C)C[C@H]3N4)cc2)cc1 (stereo partly specified),0% (inactive)
5,CCOC(=O)CSc1nnc(CCCCCN2C(=O)c3cccc4cccc(c34)C2=O)o1,0.071% (inactive)
6,COc1cccc(CNC(=O)CNC(=S)N(Cc2ccccc2)Cc2ccccc2F)c1,0.054% (inactive)
7,COc1ccccc1C#Cc1ccc2c(c1)O[C@H](CN(C)Cc1cncnc1)[C@@H](C)CN([C@H](C)CO)S2(=O)=O,0% (inactive)
8,CC1CCN(C(=O)Cn2nnc(-c3ccccc3)n2)CC1,0.009% (inactive)
9,CCCNNC(=O)C(O)(c1ccccc1)c1ccccc1,0.02% (inactive)
10,C[C@@H]1CN([C@@H](C)CO)S(=O)(=O)c2ccc(C#CC3CC3)cc2O[C@H]1CN(C)Cc1ccc(F)cc1,0.107% (inactive)
11,CCOC(=O)N1CCN(Cc2cc(Cl)c3cccnc3c2O)CC1,0% (inactive)
12,CN1OC[C@@H]2CN(Cc3ccccc3)[C@H](c3cccc(N4CCOCC4)c3)C[C@@H]21,0.013% (inactive)
13,CCOC(=O)c1ccc(NC(=O)C2CCC(CNc3c(N4CCOCC4)c(=O)c3=O)CC2)cc1 (stereo unspecified),0.105% (inactive)
14,CC(C)(C)N(Cc1ccccc1)C(=O)COC(=O)c1ccc(N2CCCC2=O)cc1,-0.007% (inactive)
15,CN(C)/C=C1\C=C2C(=O)c3ccccc3N2C1=O,0.092% (inactive)
16,CCCN(C)C[C@@H]1OCc2cnnn2CCCC(=O)N([C@H](C)CO)C[C@H]1C,0.007% (inactive)
17,CC1C=NC(S(=O)(=O)N2CC[C@@H]3[C@@H](CO)N(C)c4ccc(-c5ccccc5)cc4[C@@H]32)=N1 (stereo partly specified),0% (inactive)
18,CCn1c(Cl)c(C=O)s/c1=N\S(=O)(=O)c1ccccc1,0% (inactive)
19,O=C(COC(=O)/C=C/c1cccc(C(F)(F)F)c1)NC(=O)NCc1ccco1,0.351% (inactive)
20,CC(Sc1nnc(-c2ccncc2)n1C)C(=O)Nc1ccc(N2CCOCC2)cc1 (stereo unspecified),0% (inactive)
21,CN1CCN(S(=O)(=O)c2ccc(C#N)cc2)C(c2ccccc2)C1 (stereo unspecified),0% (inactive)
22,COc1cccc(CNC(=O)C(Cc2ccccc2)n2cccc2)c1 (stereo unspecified),0% (inactive)

row,SMILES,% fluorescent cells increase
1,CCOC(=O)Cc1c(C)[nH]n(-c2ccccc2)c1=O,0.015% (inactive)
2,O=C(Nc1ccccc1N1CCCCC1)c1cnccn1,0.039% (inactive)
3,CC(=O)Nc1ccc(NS(=O)(=O)c2ccc3c(c2)oc(=O)n3C)cc1,0.01% (inactive)
4,COc1cccc(CNC(=O)c2cc(S(=O)(=O)N3CCCC3)cn2C)c1,0% (inactive)
5,Cc1noc(C)c1NC(=O)N[C@H]1CC[C@H](CC(=O)N2CCN(C)CC2)O[C@H]1CO,0.024% (inactive)
6,CCN1C(=O)C(=Cc2cccc(OC)c2Oc2ccc([N+](=O)[O-])cc2[N+](=O)[O-])SC1=S,1.07% (inactive)
7,COC(=O)c1c(NC(=O)c2ccc(C)cc2)csc1C,-0.006% (inactive)
8,CCOc1ccc(C(=O)c2cc([N+](=O)[O-])ccc2N2CCOCC2)cc1,0% (inactive)
9,CCOc1ccccc1N1C(=O)CC(Sc2nccc(C)n2)C1=O (stereo unspecified),0% (inactive)
10,COc1ccc2c3c(n(C)c2c1)[C@H](CO)N(Cc1ccccc1F)CC31CCN(CC2CC2)CC1,-0.126% (inactive)
11,Nc1nnc(SCC(=O)c2ccc([N+](=O)[O-])cc2)s1,-0.007% (inactive)
12,NC(=NC(=O)c1cccc(C(F)(F)F)c1)c1ccc(C(F)(F)F)cn1,0% (inactive)
13,CC(=O)N/C(N)=N/c1nc(=O)c2ccccc2s1,0.24% (inactive)
14,CCc1ccccc1OCC(=O)Nc1ccc(N2CCCC2)cc1C,0.096% (inactive)
15,COC(=O)c1sc(-c2ccc(C(C)(C)C)cc2)cc1NC(=O)c1ccccc1C(=O)O,0.032% (inactive)
16,CCOC(=O)N1CCN(C(=O)Cn2ccc3c(OC)cccc3c2=O)CC1,0.012% (inactive)
17,O=[N+]([O-])c1c(Nc2ccc(O)cc2)cc(Cl)c2nonc12,-0.006% (inactive)
18,O=C1c2ccccc2C(=Cc2cccnc2)c2ccccc21,0.125% (inactive)
19,Cc1ccc(S(=O)(=O)c2ccc([N+](=O)[O-])cn2)cc1,0% (inactive)
